Consider twelve compounds from US10005750B2, “Developing potent urate transporter inhibitors: compounds designed for their uricosuric action” (priority 2010, dated 2018).

Structures are written as SMILES.

The target in experiment [1] is T1, hURAT1 (Homo sapiens, UniProt Q96S37).
T1 sequence (Q96S37 1-553): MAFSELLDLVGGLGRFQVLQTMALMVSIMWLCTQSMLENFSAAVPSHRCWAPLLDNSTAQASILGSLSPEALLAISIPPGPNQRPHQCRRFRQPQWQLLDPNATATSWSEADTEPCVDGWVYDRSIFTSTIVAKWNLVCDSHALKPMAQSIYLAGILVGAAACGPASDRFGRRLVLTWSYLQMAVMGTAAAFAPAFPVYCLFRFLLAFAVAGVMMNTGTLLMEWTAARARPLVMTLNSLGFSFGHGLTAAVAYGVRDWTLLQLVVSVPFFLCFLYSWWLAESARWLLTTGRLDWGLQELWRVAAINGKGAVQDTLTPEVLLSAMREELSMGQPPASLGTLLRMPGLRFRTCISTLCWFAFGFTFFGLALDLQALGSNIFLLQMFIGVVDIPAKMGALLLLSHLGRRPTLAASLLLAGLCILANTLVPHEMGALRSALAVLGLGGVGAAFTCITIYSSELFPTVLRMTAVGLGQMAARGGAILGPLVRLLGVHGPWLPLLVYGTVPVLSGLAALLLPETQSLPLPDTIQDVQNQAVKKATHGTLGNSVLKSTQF
As to the kind of experiment: [14C]urate uptake inhibition in Xenopus oocytes expressing hURAT1. The format is cell-based. Details: expressed in transfected cells; host or cells: Xenopus laevis oocytes injected with capped cRNA. Conditions: 60 min; for IC50: 14C-uric acid uptake; for 14C-urate transport inhibition: test compound at 50 μM. The method, then: cRNA synthesis and oocyte injection. The hURATv1 (pCMV6-XL5) plasmids were linearized with XbaI and hURAT2 (pCMV-SPORT6) plasmids were linearized with XhoI. The cRNAs were synthesized in vitro with T7 RNA polymerase (for hURATv1) or SP6 RNA polymerase (for hURAT2) using mMessage mMachine® High yield capped RNA transcription kit (Ambion, Austin, Tex., USA). The polyadenylation of cRNA at 3′-end was performed using poly(A) tailing kit (Ambion, Austin, Tex., USA). Female Xenopus frogs (African clawed frogs; 95-120 g) were purchased from Sato Zoushoku (Chiba, Japan) and nurtured in tap water (19±3° C.). […] The oocytes were washed in Ca^2+-free solution and transferred to ND96 solution (96.0 mM NaCl, 2.0 mM KCl, 1.0 mM CaCl2, 1.0 mM MgCl2.6H2O and 5.0 mM HEPES, pH 7.5). Defolliculated Xenopus oocytes (stage 1V and V) were injected with 25 ng of capped cRNA and incubated at 18° C. for 2-3 days in ND96 solution containing gentamicin (50 μg/ml) and 2.5 mM sodium pyruvate.
Inhibition study. After incubation of cRNA-injected oocytes (2-3 days), uptake experiments were performed at room temperature in ND96 solution. […] The uptake was terminated by washing the oocytes with ice-cold uptake solution (5 times @ 1.0 ml each) after 60 min of incubation. The oocytes were solubilized with 5% (w/v) SDS and the radioactivity content determined using liquid scintillation counter (Aloka 3100; Aloka Co., Ltd. Tokyo, Japan). The urate uptake by non-injected (control) oocytes was subtracted from oocytes expressing hURAT1, hURATv1 or hURAT2. The data are presented and reported as the % inhibition. The IC50 data were conducted using different compound concentrations.
We conducted a general screen where ^14C-uric acid ([…]) and test compound (50 μM) were placed in the extracellular fluid. Radioactivity inside the oocyte was analyzed after 60 min. […] The IC50 values were generated using a sigmoidal dose-response (variable slope) relationship.

For experiment [2], the system named is hURAT1, hURAT2, and hURATv1. Nature of the experiment: combined % inhibition of urate transport in oocytes expressing hURAT1, hURAT2 or hURATv1. The format is cell-based, human. The following applies: sum over the three transporters. As to the method:
cRNA synthesis and oocyte injection. The hURATv1 (pCMV6-XL5) plasmids were linearized with XbaI and hURAT2 (pCMV-SPORT6) plasmids were linearized with XhoI. The cRNAs were synthesized in vitro with T7 RNA polymerase (for hURATv1) or SP6 RNA polymerase (for hURAT2) using mMessage mMachine® High yield capped RNA transcription kit (Ambion, Austin, Tex., USA). The polyadenylation of cRNA at 3′-end was performed using poly(A) tailing kit (Ambion, Austin, Tex., USA). Female Xenopus frogs (African clawed frogs; 95-120 g) were purchased from Sato Zoushoku (Chiba, Japan) and nurtured in tap water (19±3° C.). Oocytes (1.23±0.10 mg/oocyte) isolated from Xenopus laevis were defolliculated with 1.0 mg/ml collagenase in Ca^2+-free solution (96.0 mM NaCl, 2.0 mM KCl, 1.0 mM MgCl2.6H2O and 5.0 mM HEPES, pH 7.5) at 25+2° C. for 2.0 h. The oocytes were washed in Ca^2+-free solution and transferred to ND96 solution (96.0 mM NaCl, 2.0 mM KCl, 1.0 mM CaCl2, 1.0 mM MgCl2.6H2O and 5.0 mM HEPES, pH 7.5). Defolliculated Xenopus oocytes (stage 1V and V) were injected with 25 ng of capped cRNA and incubated at 18° C. for 2-3 days in ND96 solution containing gentamicin (50 μg/ml) and 2.5 mM sodium pyruvate.
Inhibition study. […] The oocytes were solubilized with 5% (w/v) SDS and the radioactivity content determined using liquid scintillation counter (Aloka 3100; Aloka Co., Ltd. Tokyo, Japan). […]

The target in experiment [3] is T1, hURAT1. Details: expressed in transfected cells; host or cells: Xenopus laevis oocytes injected with capped cRNA. The following applies: previous results of the applicants' laboratories; cited from earlier work.
Experiment [4] addresses T1, hURAT1. As to the kind of experiment: MDCK-hURAT1 data (Endou and Olkawa, 2009). The format is cell-based. The arrangement: expressed in transfected cells. The following applies: 8 versus 7, MDCK-hURAT1 data.
The conditions of experiment [5]: oral; 7 (100 mg/kg) versus 4 (300 mg/day) or 5 (1000 mg/day); cited from earlier work.

Turning to `CCc1oc2cc(O)ccc2c1C(=O)c1ccc(OC)cc1` [Compound 31, (2-Ethyl-6-hydroxybenzofuran-3-yl)(4-methoxyphenyl)methanone], on hURAT1 [1], the IC50 is above 50000 nM.
Consider `CCc1oc2ccccc2c1C(=O)c1cc(Br)c(OC)c(Br)c1` [Compound 85, (3,5-Dibromo-4-methoxyphenyl)(2-ethylbenzofuran-3-yl)methanone], for which the “combined % inhibition for hURAT1, hURAT2, and hURATv1” value in experiment [2] was below 160%.
`CCc1oc2cc(O)ccc2c1C(=O)c1cc(Br)c(O)c(Br)c1` [Compound 8, (3,5-dibromo-4-hydroxyphenyl)(2-ethyl-6-hydroxy-benzofuran-3-yl)methanone]: the hURAT1 inhibitor properties entry on hURAT1 [3] is recorded as “potent”. At hURAT1 [4], this compound yielded a fold difference of 5.7 fold. At hURAT1 [1], this compound had an IC50 of 138 nM.
Compound `CCc1cc2cc(O)cc(C(=O)c3cc(Br)c(O)c(Br)c3)c2o1` [Compound 44, (3,5-Dibromo-4-hydroxyphenyl)(2-ethyl-5-hydroxybenzofuran-7-yl)methanone] gave an IC50 on hURAT1 [1] of 287 nM.
`CCc1oc2ccccc2c1C(=O)c1ccc(O)cc1` [Compound 13, (2-Ethylbenzofuran-3-yl)(4-hydroxyphenyl)methanone, reference compound] showed an IC50 against hURAT1 [1] of 2800 nM.
As to `CCc1oc2c(OC)cccc2c1C(=O)c1ccc(OC)cc1` [Compound 19, (2-Ethyl-7-methoxybenzofuran-3-yl)(4-methoxyphenyl)methanone], the 14C-urate transport inhibition entry on hURAT1 [1] was “weak inhibition”.
As to `CCc1oc2cc(OC)ccc2c1C(=O)c1ccc(O)cc1` [Compound 30, (2-Ethyl-6-methoxybenzofuran-3-yl)(4-hydroxyphenyl)methanone], 3900 nM corresponded to half-maximal inhibition against hURAT1 [1] (IC50).
`CCc1cc2cc(OC)cc(C(=O)c3cc(Br)c(O)c(Br)c3)c2o1` [Compound 43] gave an IC50 against hURAT1 [1] of 1440 nM.
On the same count and under the same terms, the figure for `CCc1oc2cc(O)ccc2c1C(=O)c1ccc(O)cc1` [Compound 32, (2-ethyl-6-hydroxybenzofuran-3-yl)(4-hydroxyphenyl)methanone] is 1100 nM.
With `CCc1oc2ccc(OC)cc2c1C(=O)c1ccc(OC)cc1` [Compound 14, (2-Ethyl-5-methoxybenzofuran-3-yl)(4-methoxyphenyl)methanone], the 14C-urate transport inhibition result on hURAT1 [1] is reported as “weak inhibition”.
Same read-out and setting: the entry for `CCc1oc2ccccc2c1C(=O)c1ccc(OC)cc1` [Compound 12, (2-Ethylbenzofuran-3-yl)(4-methoxyphenyl)methanone] is “weak-to-no”.
For `CCc1oc2ccccc2c1C(=O)c1cc(Br)c(O)c(Br)c1` [Compound 7, (3,5-Dibromo-4-hydroxyphenyl)(2-ethylbenzofuran-3-yl)methanone], the hURAT1 inhibitor properties result on hURAT1 [3] is reported as “potent”. In addition, the “physiological effect (lowers urate level)” value in experiment [5] is listed as “greater physiological effect”.
